# Literature values, collected in US20090162416A1, “Polymer implants for timed release of drugs with particular emphasis on ovulation or spermiation of fish” (priority 2007, published 2009).
# Non-standard residues stand in square brackets, D forms with d. pGlu = O=C1CC[C@@H](C(=O)O)N1
# Test system: seasonable ripe gravid female catfish
# Conditions: 0.45 mg/lb of body weight
substance,measurement,value
"-Glp-His-Trp-Ser-Tyr-Gly-Leu-Arg-Pro-ethylamide- ([pGlu]HWSYGLRP-NHEt) [LHRH, nine amino acid synthetic polypeptide used to promote ovulation in catfish]",time to ovulation after single injection,≤ 12 h
